In US10766902B2, “Wee-1 inhibiting pyrazolopyrimidinone compounds” (ALMAC DISCOVERY LIMITED, priority 2016, dated 2020):

Assays:
AMPK A1/B1/G1 = AMPK A1/B1/G1 (Homo sapiens (Human), UniProt Q13131); test: SelectScreen Kinase Profiling: AMPK A1/B1/G1; assay type: biochemical; conditions: tested at 300-350 nM
Text: (§1) Table 4 below highlights the selectivity of a representative compound of the invention, Example 5, against a panel of 50 kinases (assessed using the Invitrogen SelectScreen® Kinase Profiling Service).

KDR (VEGFR2) = KDR (VEGFR2) (Homo sapiens (Human), UniProt P35968); test: SelectScreen Kinase Profiling: KDR (VEGFR2); assay type: biochemical; conditions: tested at 300-350 nM
Chain of KDR (VEGFR2) (P35968 20-1356): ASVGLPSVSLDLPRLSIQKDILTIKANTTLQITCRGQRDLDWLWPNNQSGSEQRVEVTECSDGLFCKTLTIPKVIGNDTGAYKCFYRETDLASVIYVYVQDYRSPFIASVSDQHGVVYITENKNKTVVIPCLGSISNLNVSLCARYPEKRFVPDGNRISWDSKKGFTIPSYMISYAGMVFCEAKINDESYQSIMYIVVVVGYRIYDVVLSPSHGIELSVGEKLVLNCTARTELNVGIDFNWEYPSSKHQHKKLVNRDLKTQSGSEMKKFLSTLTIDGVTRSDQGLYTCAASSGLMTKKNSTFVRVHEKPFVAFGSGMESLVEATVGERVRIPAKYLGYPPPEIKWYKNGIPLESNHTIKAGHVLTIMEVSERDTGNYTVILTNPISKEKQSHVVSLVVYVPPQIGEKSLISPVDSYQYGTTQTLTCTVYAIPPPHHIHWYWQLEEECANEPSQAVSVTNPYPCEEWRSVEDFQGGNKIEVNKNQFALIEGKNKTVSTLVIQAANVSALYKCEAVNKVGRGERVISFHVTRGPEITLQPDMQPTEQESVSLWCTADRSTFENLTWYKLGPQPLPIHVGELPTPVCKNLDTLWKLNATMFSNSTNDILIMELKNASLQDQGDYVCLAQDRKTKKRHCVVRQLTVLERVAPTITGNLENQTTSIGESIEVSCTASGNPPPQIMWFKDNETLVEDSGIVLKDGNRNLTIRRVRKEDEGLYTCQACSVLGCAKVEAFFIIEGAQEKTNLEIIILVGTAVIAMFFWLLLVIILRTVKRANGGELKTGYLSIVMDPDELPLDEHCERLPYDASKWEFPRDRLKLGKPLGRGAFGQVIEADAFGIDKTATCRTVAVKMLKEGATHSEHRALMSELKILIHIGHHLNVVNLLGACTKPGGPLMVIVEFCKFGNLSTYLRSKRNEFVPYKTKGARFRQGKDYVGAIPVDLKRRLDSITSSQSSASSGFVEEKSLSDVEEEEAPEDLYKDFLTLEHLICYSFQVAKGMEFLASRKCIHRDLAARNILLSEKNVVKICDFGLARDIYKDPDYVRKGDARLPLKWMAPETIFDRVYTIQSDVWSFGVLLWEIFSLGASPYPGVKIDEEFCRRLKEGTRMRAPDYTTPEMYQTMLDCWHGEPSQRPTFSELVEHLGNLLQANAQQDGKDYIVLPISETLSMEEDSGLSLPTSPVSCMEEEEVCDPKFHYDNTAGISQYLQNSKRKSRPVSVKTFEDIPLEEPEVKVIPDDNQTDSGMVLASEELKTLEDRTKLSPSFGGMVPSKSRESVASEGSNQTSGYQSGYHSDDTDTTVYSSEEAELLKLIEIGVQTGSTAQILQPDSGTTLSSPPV
Text: as §1

NEK1 = NEK1 (Homo sapiens (Human), UniProt Q96PY6); test: SelectScreen Kinase Profiling: NEK1; assay type: biochemical; conditions: tested at 300-350 nM
Chain of NEK1 (Q96PY6 whole entry): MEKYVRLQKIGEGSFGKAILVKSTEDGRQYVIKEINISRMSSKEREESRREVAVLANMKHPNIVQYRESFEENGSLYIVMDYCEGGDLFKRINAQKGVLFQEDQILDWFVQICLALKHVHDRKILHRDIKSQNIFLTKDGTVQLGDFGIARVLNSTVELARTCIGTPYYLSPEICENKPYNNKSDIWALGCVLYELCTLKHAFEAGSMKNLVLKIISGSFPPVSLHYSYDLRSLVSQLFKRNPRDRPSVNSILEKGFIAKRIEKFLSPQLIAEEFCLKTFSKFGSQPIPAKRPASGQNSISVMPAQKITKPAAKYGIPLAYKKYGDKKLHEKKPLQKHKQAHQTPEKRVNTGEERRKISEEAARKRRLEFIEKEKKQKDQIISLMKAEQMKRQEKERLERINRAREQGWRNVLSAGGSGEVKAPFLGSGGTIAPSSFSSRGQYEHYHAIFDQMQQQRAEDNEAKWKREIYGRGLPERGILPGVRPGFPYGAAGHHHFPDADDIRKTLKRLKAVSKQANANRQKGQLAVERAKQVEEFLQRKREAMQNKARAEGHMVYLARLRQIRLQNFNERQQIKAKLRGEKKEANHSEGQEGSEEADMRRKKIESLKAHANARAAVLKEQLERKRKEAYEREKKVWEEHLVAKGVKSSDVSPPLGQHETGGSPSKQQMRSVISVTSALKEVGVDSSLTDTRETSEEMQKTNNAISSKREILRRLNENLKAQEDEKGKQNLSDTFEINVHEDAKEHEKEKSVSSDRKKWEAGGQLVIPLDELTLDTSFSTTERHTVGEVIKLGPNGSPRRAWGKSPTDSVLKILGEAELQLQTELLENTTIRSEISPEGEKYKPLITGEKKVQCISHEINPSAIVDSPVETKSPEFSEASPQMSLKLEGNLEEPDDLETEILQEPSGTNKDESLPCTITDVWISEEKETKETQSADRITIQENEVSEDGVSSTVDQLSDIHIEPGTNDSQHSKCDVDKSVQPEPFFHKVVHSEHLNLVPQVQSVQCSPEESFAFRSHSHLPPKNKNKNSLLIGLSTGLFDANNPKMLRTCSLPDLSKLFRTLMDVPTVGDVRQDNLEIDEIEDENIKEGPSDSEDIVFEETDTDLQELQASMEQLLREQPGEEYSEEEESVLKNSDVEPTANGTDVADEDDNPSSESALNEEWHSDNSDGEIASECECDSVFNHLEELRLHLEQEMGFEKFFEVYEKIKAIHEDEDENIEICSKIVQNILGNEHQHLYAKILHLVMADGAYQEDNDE
Text: as §1

LCK = LCK (Homo sapiens (Human), UniProt P06239); test: SelectScreen Kinase Profiling: LCK; assay type: biochemical; conditions: tested at 300-350 nM
Chain of LCK (P06239 whole entry): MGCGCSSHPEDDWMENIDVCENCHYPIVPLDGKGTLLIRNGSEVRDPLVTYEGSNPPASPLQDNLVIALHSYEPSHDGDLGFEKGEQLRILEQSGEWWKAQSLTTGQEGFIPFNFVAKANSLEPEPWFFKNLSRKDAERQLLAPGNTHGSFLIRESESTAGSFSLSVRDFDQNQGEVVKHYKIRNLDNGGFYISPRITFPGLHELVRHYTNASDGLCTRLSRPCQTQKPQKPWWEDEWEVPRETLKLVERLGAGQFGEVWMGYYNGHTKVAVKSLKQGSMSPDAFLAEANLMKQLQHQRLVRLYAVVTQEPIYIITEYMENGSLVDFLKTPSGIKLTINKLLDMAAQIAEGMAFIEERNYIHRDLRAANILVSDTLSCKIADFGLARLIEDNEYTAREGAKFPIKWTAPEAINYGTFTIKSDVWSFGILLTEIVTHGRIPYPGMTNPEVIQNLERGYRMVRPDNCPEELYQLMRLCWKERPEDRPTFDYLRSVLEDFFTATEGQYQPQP

IGF1R = IGF1R (Homo sapiens (Human), UniProt P08069); test: SelectScreen Kinase Profiling: IGF1R; assay type: biochemical; conditions: tested at 300-350 nM
Text: as §1

A427 cells = test: Cell viability (CellTiter-Glo), A427; assay type: cell-based; conditions: Homo sapiens, A-427; cell viability after 72 hours
Method: All cell lines (HT29, A427, A498, SKLU-1) were obtained from the American Type Culture Collection (ATCC), maintained in the recommended media supplemented with 10% (v/v) FBS, 1% (v/v) Penicillin/streptomycin and kept at 37° C. in a humidified atmosphere with 5% CO2. Cells were seeded in 96 wp format typically at a seeding density of 3500-5000 cells/well and treated after 24 hours with increasing concentration of compound from 0 to 100 μM in ½ log unit increments. Cell viability was assessed after 72 hours (HT29, A427) or after 6 days (SKLU-1, A498) by CellTiter-Glo® as recommended by the manufacturer's instructions (Promega). Analysis and EC50 values were derived using GraphPadPrism.

MAP2K1 (MEK1) = MAP2K1 (MEK1) (Homo sapiens (Human), UniProt Q02750); test: SelectScreen Kinase Profiling: MAP2K1 (MEK1); assay type: biochemical; conditions: tested at 300-350 nM
Chain of MAP2K1 (MEK1) (Q02750 whole entry): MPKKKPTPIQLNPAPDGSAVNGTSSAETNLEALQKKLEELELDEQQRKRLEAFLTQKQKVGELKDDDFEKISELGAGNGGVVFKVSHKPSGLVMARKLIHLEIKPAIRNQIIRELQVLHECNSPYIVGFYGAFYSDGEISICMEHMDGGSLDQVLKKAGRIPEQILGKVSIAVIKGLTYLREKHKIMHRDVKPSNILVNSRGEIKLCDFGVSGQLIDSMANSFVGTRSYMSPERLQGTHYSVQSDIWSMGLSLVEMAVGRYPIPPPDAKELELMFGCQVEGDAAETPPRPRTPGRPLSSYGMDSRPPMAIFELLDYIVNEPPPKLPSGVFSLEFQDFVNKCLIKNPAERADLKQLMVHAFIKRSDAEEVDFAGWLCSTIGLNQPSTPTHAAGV
Text: as §1

ERBB2 (HER2) = ERBB2 (HER2) (Homo sapiens (Human), UniProt P04626); test: SelectScreen Kinase Profiling: ERBB2 (HER2); assay type: biochemical; conditions: tested at 300-350 nM
Text: as §1

FLT3 = FLT3 (Homo sapiens (Human), UniProt P36888); test: SelectScreen Kinase Profiling: FLT3; assay type: biochemical; conditions: tested at 300-350 nM
Text: as §1

ACVR1B (ALK4) = ACVR1B (ALK4) (Homo sapiens (Human), UniProt P36896); test: SelectScreen Kinase Profiling: ACVR1B (ALK4); assay type: biochemical; conditions: tested at 300-350 nM
Text: as §1

TEK (Tie2) = TEK (Tie2) (Homo sapiens (Human), UniProt Q02763); test: SelectScreen Kinase Profiling: TEK (Tie2); assay type: biochemical; conditions: tested at 300-350 nM
Chain of TEK (Tie2) (Q02763 23-1124): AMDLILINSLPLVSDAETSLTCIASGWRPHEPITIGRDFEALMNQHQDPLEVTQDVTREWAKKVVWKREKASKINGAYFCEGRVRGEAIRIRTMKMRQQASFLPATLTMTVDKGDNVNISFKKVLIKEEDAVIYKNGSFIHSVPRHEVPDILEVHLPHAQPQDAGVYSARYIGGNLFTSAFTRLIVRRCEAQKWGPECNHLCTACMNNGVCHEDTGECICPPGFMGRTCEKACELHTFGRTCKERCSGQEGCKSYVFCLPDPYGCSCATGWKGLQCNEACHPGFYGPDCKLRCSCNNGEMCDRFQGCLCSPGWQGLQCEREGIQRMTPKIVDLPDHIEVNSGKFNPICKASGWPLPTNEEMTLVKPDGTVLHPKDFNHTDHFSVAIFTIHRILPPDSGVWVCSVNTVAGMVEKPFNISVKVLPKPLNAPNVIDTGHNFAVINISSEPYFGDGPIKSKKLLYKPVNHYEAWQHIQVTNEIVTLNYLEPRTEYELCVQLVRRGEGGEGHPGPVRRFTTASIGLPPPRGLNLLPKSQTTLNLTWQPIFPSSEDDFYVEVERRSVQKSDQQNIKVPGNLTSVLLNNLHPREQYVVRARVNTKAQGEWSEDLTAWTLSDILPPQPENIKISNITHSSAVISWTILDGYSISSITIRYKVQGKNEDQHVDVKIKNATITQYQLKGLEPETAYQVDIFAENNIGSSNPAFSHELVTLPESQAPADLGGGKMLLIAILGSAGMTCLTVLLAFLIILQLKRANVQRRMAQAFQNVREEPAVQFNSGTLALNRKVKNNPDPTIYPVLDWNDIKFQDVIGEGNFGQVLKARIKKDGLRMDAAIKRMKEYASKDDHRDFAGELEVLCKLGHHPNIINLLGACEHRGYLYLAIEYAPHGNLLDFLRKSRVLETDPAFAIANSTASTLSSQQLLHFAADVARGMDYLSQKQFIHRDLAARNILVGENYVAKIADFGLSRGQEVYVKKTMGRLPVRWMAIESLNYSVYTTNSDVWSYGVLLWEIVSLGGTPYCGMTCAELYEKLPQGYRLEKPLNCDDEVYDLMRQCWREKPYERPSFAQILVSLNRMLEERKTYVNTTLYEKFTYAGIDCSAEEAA
Text: as §1

ABL1 = ABL1 (Homo sapiens (Human), UniProt P00519); test: SelectScreen Kinase Profiling: ABL1; assay type: biochemical; conditions: tested at 300-350 nM
Text: as §1

MAPK14 (p38 alpha) = MAPK14 (p38 alpha) (Homo sapiens (Human), UniProt Q16539); test: SelectScreen Kinase Profiling: MAPK14 (p38 alpha); assay type: biochemical; conditions: tested at 300-350 nM
Chain of MAPK14 (p38 alpha) (Q16539 whole entry): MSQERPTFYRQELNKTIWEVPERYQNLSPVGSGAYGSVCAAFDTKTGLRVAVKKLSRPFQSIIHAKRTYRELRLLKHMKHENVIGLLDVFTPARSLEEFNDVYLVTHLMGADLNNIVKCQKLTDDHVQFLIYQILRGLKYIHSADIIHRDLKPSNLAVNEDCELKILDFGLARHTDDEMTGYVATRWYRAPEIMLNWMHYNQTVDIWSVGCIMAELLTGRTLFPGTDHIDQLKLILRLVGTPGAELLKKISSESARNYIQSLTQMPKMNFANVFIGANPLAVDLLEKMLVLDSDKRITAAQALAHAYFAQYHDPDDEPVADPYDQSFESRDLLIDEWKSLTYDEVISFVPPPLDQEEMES
Text: as §1

SMILES: C=CCn1c(=O)c2cnc(Nc3ccc(N4CCN(C)CC4)cc3)nc2n1-c1cccc(N=S(C)(C)=O)n1 [Example 5, 1-(6-{[Dimethyl(oxo)-λ^6-sulfanylidene]amino}pyridine-2-yl)-6-{[4-(4-methylpiperazin-1-yl)phenyl]amino}-2-(prop-2-en-1-yl)-1H,2H,3H-pyrazolo[3,4-d]pyrimidin-3-one]
- inhibition of AMPK A1/B1/G1 (AMPK A1/B1/G1): − (inhibition under 50% (tested at 300-350 nM))
- inhibition of KDR (VEGFR2) (KDR (VEGFR2)): − (inhibition under 50% (tested at 300-350 nM))
- inhibition of NEK1 (NEK1): − (inhibition under 50% (tested at 300-350 nM))
- inhibition of LCK (LCK): − (inhibition under 50% (tested at 300-350 nM))
- inhibition of IGF1R (IGF1R): − (inhibition under 50% (tested at 300-350 nM))
- EC50 (A427 cells): 29 nM
- inhibition of MAP2K1 (MEK1) (MAP2K1 (MEK1)): − (inhibition under 50% (tested at 300-350 nM))
- inhibition of ERBB2 (HER2) (ERBB2 (HER2)): − (inhibition under 50% (tested at 300-350 nM))
- inhibition of FLT3 (FLT3): − (inhibition under 50% (tested at 300-350 nM))
- inhibition of ACVR1B (ALK4) (ACVR1B (ALK4)): − (inhibition under 50% (tested at 300-350 nM))
- inhibition of TEK (Tie2) (TEK (Tie2)): − (inhibition under 50% (tested at 300-350 nM))
- inhibition of ABL1 (ABL1): − (inhibition under 50% (tested at 300-350 nM))
- inhibition of MAPK14 (p38 alpha) (MAPK14 (p38 alpha)): − (inhibition under 50% (tested at 300-350 nM))
